Measurements reported in ChEMBL document CHEMBL1201862, “PubChem BioAssay data set” (2004).
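Protocol summary: plate cells (96-well), add compound at 5 concentrations, incubate 48 h, interpolate endpoints linearly. GI50: concentration for 50% inhibition of growth.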 Active and inactive are the calls of the source. Rule as the data show it: active = GI50 up to about 1.1 µM and inactive = higher.

Legend:
Assay in all cases: NCI anticancer screen, dose series, 48 h
SK-MEL-5 = test system: SK-MEL-5
SK-MEL-2 = test system: SK-MEL-2
M14 = test system: M14
K562 = test system: K562
EKVX = test system: EKVX
IGROV-1 = test system: IGROV-1
SK-OV-3 = test system: SK-OV-3
HOP-62 = test system: HOP-62
KM12 = test system: KM12
RXF 393 = test system: RXF 393
HOP-92 = test system: HOP-92
SF-539 = test system: SF-539
Malme-3M = test system: Malme-3M
A549 = test system: A549
MCF7 = test system: MCF7
MDA-MB-231 = test system: MDA-MB-231
Hs-578T = test system: Hs-578T
NCI/ADR-RES = test system: NCI/ADR-RES
SF-268 = test system: SF-268
LOX IMVI = test system: LOX IMVI
HT-29 = test system: HT-29
SNB-75 = test system: SNB-75
COLO 205 = test system: COLO 205
OVCAR-4 = test system: OVCAR-4
T47D = test system: T47D
SNB-19 = test system: SNB-19
786-0 = test system: 786-0
OVCAR-3 = test system: OVCAR-3
BT-549 = test system: BT-549
CAKI-1 = test system: CAKI-1
RPMI-8226 = test system: RPMI-8226
SN12C = test system: SN12C
HCC 2998 = test system: HCC 2998
SF-295 = test system: SF-295
SR = test system: SR
NCI-H23 = test system: NCI-H23
SW-620 = test system: SW-620
OVCAR-8 = test system: OVCAR-8
OVCAR-5 = test system: OVCAR-5
DU-145 = test system: DU-145
NCI-H226 = test system: NCI-H226
UO-31 = test system: UO-31
MDA-MB-435 = test system: MDA-MB-435
HCT-15 = test system: HCT-15
U-251 = test system: U-251
UACC-257 = test system: UACC-257
UACC-62 = test system: UACC-62
NCI-H460 = test system: NCI-H460
ACHN = test system: ACHN
TK-10 = test system: TK-10
SK-MEL-28 = test system: SK-MEL-28
MOLT-4 = test system: MOLT-4
NCI-H522 = test system: NCI-H522
PC-3 = test system: PC-3
HCT-116 = test system: HCT-116
MDA-N = test system: MDA-N
HL-60 = test system: HL-60
CCRF-CEM = test system: CCRF-CEM

Cc1cccc2c1CC(Cc1ccccc1C(=O)O)C2=O (centres undefined)
GI50 (SK-MEL-5): > 100 µM (inactive) | GI50 (SK-MEL-2): > 100 µM (inactive) | GI50 (M14): > 100 µM (inactive) | GI50 (K562): > 100 µM (inactive) | GI50 (EKVX): > 100 µM (inactive) | GI50 (IGROV-1): > 100 µM (inactive) | GI50 (SK-OV-3): > 100 µM (inactive) | GI50 (HOP-62): > 100 µM (inactive) | GI50 (KM12): > 100 µM (inactive) | GI50 (RXF 393): > 100 µM (inactive) | GI50 (HOP-92): > 100 µM (inactive) | GI50 (SF-539): > 100 µM (inactive) | GI50 (Malme-3M): > 100 µM (inactive) | GI50 (A549): > 100 µM (inactive) | GI50 (MCF7): > 100 µM (inactive) | GI50 (MDA-MB-231): > 100 µM (inactive) | GI50 (Hs-578T): > 100 µM (inactive) | GI50 (NCI/ADR-RES): > 100 µM (inactive) | GI50 (SF-268): > 100 µM (inactive) | GI50 (LOX IMVI): > 100 µM (inactive) | GI50 (HT-29): > 100 µM (inactive) | GI50 (SNB-75): > 100 µM (inactive) | GI50 (COLO 205): > 100 µM (inactive) | GI50 (OVCAR-4): > 100 µM (inactive) | GI50 (T47D): > 100 µM (inactive) | GI50 (SNB-19): > 100 µM (inactive) | GI50 (786-0): > 100 µM (inactive) | GI50 (OVCAR-3): > 100 µM (inactive) | GI50 (BT-549): > 100 µM (inactive) | GI50 (CAKI-1): > 100 µM (inactive) | GI50 (RPMI-8226): > 100 µM (inactive) | GI50 (SN12C): > 100 µM (inactive) | GI50 (HCC 2998): > 100 µM (inactive) | GI50 (SF-295): > 100 µM (inactive) | GI50 (SR): > 100 µM (inactive) | GI50 (NCI-H23): > 100 µM (inactive) | GI50 (SW-620): > 100 µM (inactive) | GI50 (OVCAR-8): > 100 µM (inactive) | GI50 (OVCAR-5): > 100 µM (inactive) | GI50 (DU-145): > 100 µM (inactive) | GI50 (NCI-H226): > 100 µM (inactive) | GI50 (UO-31): > 100 µM (inactive) | GI50 (MDA-MB-435): > 100 µM (inactive) | GI50 (HCT-15): > 100 µM | GI50 (U-251): > 100 µM (inactive) | GI50 (UACC-257): > 100 µM (inactive) | GI50 (UACC-62): > 100 µM (inactive) | GI50 (NCI-H460): > 100 µM (inactive) | GI50 (ACHN): > 100 µM (inactive) | GI50 (TK-10): > 100 µM (inactive) | GI50 (SK-MEL-28): > 100 µM (inactive) | GI50 (MOLT-4): > 100 µM (inactive) | GI50 (NCI-H522): > 100 µM (inactive) | GI50 (PC-3): > 100 µM (inactive) | GI50 (HCT-116): > 100 µM (inactive) | GI50 (MDA-N): > 100 µM (inactive) | GI50 (HL-60): > 100 µM (inactive) | GI50 (CCRF-CEM): > 100 µM (inactive)

CCOc1ccc2nc(NC(NC(=O)c3cccnc3)(C(F)(F)F)C(F)(F)F)sc2c1
GI50 (SK-MEL-5): 20.5 µM (inactive) | GI50 (SK-MEL-2): 38.5 µM (inactive) | GI50 (M14): 34.1 µM (inactive) | GI50 (K562): 38.4 µM (inactive) | GI50 (EKVX): 22.6 µM (inactive) | GI50 (SK-OV-3): 93.8 µM (inactive) | GI50 (KM12): 29.3 µM (inactive) | GI50 (RXF 393): 21 µM (inactive) | GI50 (HOP-92): 20.5 µM (inactive) | GI50 (SF-539): 49.2 µM (inactive) | GI50 (Malme-3M): 51.1 µM (inactive) | GI50 (A549): 31.4 µM (inactive) | GI50 (MCF7): 25.5 µM (inactive) | GI50 (MDA-MB-231): 66.1 µM (inactive) | GI50 (Hs-578T): > 100 µM (inactive) | GI50 (NCI/ADR-RES): 25.8 µM (inactive) | GI50 (SF-268): 56.8 µM (inactive) | GI50 (HT-29): 14.1 µM (inactive) | GI50 (SNB-75): 23.3 µM (inactive) | GI50 (COLO 205): 34.1 µM (inactive) | GI50 (OVCAR-4): 24 µM (inactive) | GI50 (T47D): 21 µM (inactive) | GI50 (SNB-19): 51.9 µM (inactive) | GI50 (786-0): 26.5 µM (inactive) | GI50 (OVCAR-3): 32.6 µM (inactive) | GI50 (BT-549): 30.2 µM (inactive) | GI50 (CAKI-1): 38.3 µM (inactive) | GI50 (SN12C): 25.2 µM (inactive) | GI50 (HCC 2998): 22.4 µM (inactive) | GI50 (SF-295): 42 µM (inactive) | GI50 (SR): 24.9 µM (inactive) | GI50 (NCI-H23): 22.8 µM (inactive) | GI50 (SW-620): 46.1 µM (inactive) | GI50 (OVCAR-8): 26.7 µM (inactive) | GI50 (OVCAR-5): 25.6 µM (inactive) | GI50 (DU-145): 35.7 µM (inactive) | GI50 (NCI-H226): 44 µM (inactive) | GI50 (UO-31): 6.84 µM (inactive) | GI50 (MDA-MB-435): 22.2 µM (inactive) | GI50 (HCT-15): 26 µM | GI50 (U-251): 42.5 µM (inactive) | GI50 (UACC-257): 25.5 µM (inactive) | GI50 (UACC-62): 25.6 µM (inactive) | GI50 (NCI-H460): 28.6 µM (inactive) | GI50 (ACHN): 29.3 µM (inactive) | GI50 (TK-10): 33.9 µM (inactive) | GI50 (SK-MEL-28): 35.2 µM (inactive) | GI50 (MOLT-4): 20.4 µM (inactive) | GI50 (NCI-H522): 23.4 µM (inactive) | GI50 (PC-3): 31.7 µM (inactive) | GI50 (HCT-116): 25.4 µM (inactive) | GI50 (MDA-N): 15.6 µM (inactive) | GI50 (HL-60): 32.4 µM (inactive) | GI50 (CCRF-CEM): 17.1 µM (inactive)

CCN(CC)CCn1c(=O)c2cccnc2n2c3c(=O)n(C)c(=O)n(C)c3nc12
GI50 (SK-MEL-5): 47.1 µM (inactive) | GI50 (SK-MEL-2): > 100 µM (inactive) | GI50 (M14): > 100 µM (inactive) | GI50 (K562): > 100 µM (inactive) | GI50 (EKVX): > 100 µM (inactive) | GI50 (IGROV-1): > 100 µM (inactive) | GI50 (SK-OV-3): > 100 µM (inactive) | GI50 (HOP-62): > 100 µM (inactive) | GI50 (KM12): > 100 µM (inactive) | GI50 (RXF 393): > 100 µM (inactive) | GI50 (HOP-92): > 100 µM (inactive) | GI50 (SF-539): 85.1 µM (inactive) | GI50 (Malme-3M): 65.2 µM (inactive) | GI50 (A549): 59.4 µM (inactive) | GI50 (MCF7): 45.1 µM (inactive) | GI50 (MDA-MB-231): > 100 µM (inactive) | GI50 (Hs-578T): > 100 µM (inactive) | GI50 (NCI/ADR-RES): > 100 µM (inactive) | GI50 (SF-268): > 100 µM (inactive) | GI50 (HT-29): > 100 µM (inactive) | GI50 (SNB-75): > 100 µM (inactive) | GI50 (COLO 205): 70.3 µM (inactive) | GI50 (OVCAR-4): > 100 µM (inactive) | GI50 (T47D): > 100 µM (inactive) | GI50 (SNB-19): > 100 µM (inactive) | GI50 (786-0): > 100 µM (inactive) | GI50 (OVCAR-3): > 100 µM (inactive) | GI50 (BT-549): > 100 µM (inactive) | GI50 (CAKI-1): 67.9 µM (inactive) | GI50 (RPMI-8226): > 100 µM (inactive) | GI50 (SN12C): > 100 µM (inactive) | GI50 (HCC 2998): 72.4 µM (inactive) | GI50 (SF-295): > 100 µM (inactive) | GI50 (SR): 38.5 µM (inactive) | GI50 (NCI-H23): > 100 µM (inactive) | GI50 (SW-620): 76.9 µM (inactive) | GI50 (OVCAR-8): > 100 µM (inactive) | GI50 (OVCAR-5): > 100 µM (inactive) | GI50 (DU-145): > 100 µM (inactive) | GI50 (NCI-H226): 95.1 µM (inactive) | GI50 (UO-31): 86.1 µM (inactive) | GI50 (MDA-MB-435): > 100 µM (inactive) | GI50 (HCT-15): 11.6 µM | GI50 (U-251): > 100 µM (inactive) | GI50 (UACC-257): > 100 µM (inactive) | GI50 (UACC-62): 57 µM (inactive) | GI50 (NCI-H460): 36.6 µM (inactive) | GI50 (ACHN): 34.8 µM (inactive) | GI50 (TK-10): 23.2 µM (inactive) | GI50 (SK-MEL-28): > 100 µM (inactive) | GI50 (MOLT-4): 34.7 µM (inactive) | GI50 (NCI-H522): > 100 µM (inactive) | GI50 (PC-3): > 100 µM (inactive) | GI50 (HCT-116): 47.8 µM (inactive) | GI50 (MDA-N): > 100 µM (inactive) | GI50 (HL-60): 69 µM (inactive) | GI50 (CCRF-CEM): 64.6 µM (inactive)
